Assay results published in PMC12486805, “Preclinical evaluation of tridecaptin M: in vitro and in vivo efficacy against colistin-resistant Gram-negative bacterial pathogens and pharmacokinetics” (Antimicrobial Agents and Chemotherapy, 2025).
Marks after values point to notes of the source that are not given here. Where a SMILES comes first, the peptide text is derived from it. [ ]: non-standard residue; d: D form. The star is where a group is joined. d(aIle) = CC[C@H](C)[C@@H](N)C(=O)O; X1 = CC[C@H](C)CCCCC(=O)*; dDab = NCC[C@@H](N)C(=O)O; Dab = NCC[C@H](N)C(=O)O

Key:
[1] = 14-day repeat dose toxicity in mice; settings: 15 mg/kg/day in two s.c. doses, 14 days
Method: Organs were fixed in 10% formalin for histopathology, and the serum was centrifuged from whole blood. The blood was left undisturbed for 20 min and centrifuged at 1,000 × g for 10 min to isolate serum for biochemical tests of the kidney and liver toxicity evaluation ([22]).

CYP3A4 = CYP3A4 (Homo sapiens, UniProt P08684); assay: CYP inhibition assay, recombinant isoform, fluorescence; type: biochemical
Sequence of CYP3A4 (P08684 whole entry, canonical isoform): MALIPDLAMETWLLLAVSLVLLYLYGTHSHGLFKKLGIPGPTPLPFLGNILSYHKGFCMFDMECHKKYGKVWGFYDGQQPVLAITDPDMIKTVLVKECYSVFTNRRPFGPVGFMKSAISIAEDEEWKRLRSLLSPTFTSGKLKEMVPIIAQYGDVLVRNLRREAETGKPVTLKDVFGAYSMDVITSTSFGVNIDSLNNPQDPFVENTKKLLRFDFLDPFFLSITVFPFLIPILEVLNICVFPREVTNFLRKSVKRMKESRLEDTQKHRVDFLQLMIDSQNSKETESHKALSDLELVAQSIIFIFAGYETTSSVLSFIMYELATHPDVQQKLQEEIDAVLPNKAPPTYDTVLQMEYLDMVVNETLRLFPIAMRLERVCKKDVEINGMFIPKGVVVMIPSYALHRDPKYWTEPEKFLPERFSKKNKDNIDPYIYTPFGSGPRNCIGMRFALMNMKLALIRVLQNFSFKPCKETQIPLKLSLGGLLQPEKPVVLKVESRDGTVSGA
Method: (§1) The CYP inhibition assay was performed for test/control inhibitor items in duplicates using a 96-well fluorescence plate. An example of the preparation of CYP inhibition is given below in Table 8.
(§2) The plate with CYP master premix with test/control was incubated to allow the test/control samples to interact with CYP enzyme for 10 ± 1 min at 25°C under shaking conditions (400 rpm) using Thermomixer. The assay was initiated by adding 10 µL of a substrate and NADP^+ mixture to all wells, including a vehicle control and an assay blank. […] After incubation, the reaction was quenched by adding 50 µL of stop reagent (0.5 M Tris base) to each well.

CYP2C19 = CYP2C19 (Homo sapiens, UniProt P33261); assay: as above; type: biochemical
Sequence of CYP2C19 (P33261 whole entry): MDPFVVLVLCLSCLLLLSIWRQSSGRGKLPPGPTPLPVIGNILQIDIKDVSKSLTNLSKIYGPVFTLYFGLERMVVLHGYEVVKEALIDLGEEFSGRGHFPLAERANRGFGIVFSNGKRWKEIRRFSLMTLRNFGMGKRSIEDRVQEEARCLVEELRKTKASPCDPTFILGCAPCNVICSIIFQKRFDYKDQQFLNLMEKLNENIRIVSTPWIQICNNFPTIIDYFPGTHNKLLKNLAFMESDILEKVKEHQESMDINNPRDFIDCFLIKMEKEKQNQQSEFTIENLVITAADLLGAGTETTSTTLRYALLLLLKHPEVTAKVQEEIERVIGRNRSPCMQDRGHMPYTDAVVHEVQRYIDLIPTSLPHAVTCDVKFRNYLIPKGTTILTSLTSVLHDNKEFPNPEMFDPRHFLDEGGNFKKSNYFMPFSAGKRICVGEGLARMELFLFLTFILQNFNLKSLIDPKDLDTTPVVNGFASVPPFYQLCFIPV
Method: as §1, §2

CYP2D6 = CYP2D6 (Homo sapiens, UniProt P10635); assay: as above; type: biochemical
Sequence of CYP2D6 (P10635 whole entry): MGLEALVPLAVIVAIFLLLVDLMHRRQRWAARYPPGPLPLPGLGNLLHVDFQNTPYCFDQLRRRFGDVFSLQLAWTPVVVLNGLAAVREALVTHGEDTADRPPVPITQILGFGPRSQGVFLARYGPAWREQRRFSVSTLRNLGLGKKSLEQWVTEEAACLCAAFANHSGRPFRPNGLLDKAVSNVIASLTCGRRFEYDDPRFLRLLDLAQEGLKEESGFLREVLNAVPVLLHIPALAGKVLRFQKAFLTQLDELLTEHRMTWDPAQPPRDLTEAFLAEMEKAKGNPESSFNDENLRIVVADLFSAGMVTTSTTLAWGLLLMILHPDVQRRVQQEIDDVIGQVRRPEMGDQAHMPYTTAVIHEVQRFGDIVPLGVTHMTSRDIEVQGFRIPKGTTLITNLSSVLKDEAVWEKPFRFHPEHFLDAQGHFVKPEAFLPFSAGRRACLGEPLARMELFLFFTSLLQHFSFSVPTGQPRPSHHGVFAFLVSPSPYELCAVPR
Method: as §1, §2

in vitro = settings: mouse, microsomes
Method: (§3) For without cofactors, 20 µL of PBS was added instead of pre-incubated cofactors. […] At each specified time, a 100 µL sample was taken, processed through a sample extraction procedure, and submitted for LC-MS/MS analysis ([35]). Half-life (t1/2) of test/control items was determined using the following equation
(§4) where, elimination rate constant (k) = −(slope of linear regression curve).

[2] = concentrations well above its MIC; cited from earlier work
[3] = mouse liver microsomes
Method: as §3, §4

hERG channel = molecular target: T1, hERG channel (Homo sapiens, UniProt Q12809); assay: hERG channel inhibition, patch clamp on HEK293 cells expressing hERG; type: cell-based
T1 construct: expressed in transfected cells; host or cells: HEK293
T1 sequence (Q12809 whole entry): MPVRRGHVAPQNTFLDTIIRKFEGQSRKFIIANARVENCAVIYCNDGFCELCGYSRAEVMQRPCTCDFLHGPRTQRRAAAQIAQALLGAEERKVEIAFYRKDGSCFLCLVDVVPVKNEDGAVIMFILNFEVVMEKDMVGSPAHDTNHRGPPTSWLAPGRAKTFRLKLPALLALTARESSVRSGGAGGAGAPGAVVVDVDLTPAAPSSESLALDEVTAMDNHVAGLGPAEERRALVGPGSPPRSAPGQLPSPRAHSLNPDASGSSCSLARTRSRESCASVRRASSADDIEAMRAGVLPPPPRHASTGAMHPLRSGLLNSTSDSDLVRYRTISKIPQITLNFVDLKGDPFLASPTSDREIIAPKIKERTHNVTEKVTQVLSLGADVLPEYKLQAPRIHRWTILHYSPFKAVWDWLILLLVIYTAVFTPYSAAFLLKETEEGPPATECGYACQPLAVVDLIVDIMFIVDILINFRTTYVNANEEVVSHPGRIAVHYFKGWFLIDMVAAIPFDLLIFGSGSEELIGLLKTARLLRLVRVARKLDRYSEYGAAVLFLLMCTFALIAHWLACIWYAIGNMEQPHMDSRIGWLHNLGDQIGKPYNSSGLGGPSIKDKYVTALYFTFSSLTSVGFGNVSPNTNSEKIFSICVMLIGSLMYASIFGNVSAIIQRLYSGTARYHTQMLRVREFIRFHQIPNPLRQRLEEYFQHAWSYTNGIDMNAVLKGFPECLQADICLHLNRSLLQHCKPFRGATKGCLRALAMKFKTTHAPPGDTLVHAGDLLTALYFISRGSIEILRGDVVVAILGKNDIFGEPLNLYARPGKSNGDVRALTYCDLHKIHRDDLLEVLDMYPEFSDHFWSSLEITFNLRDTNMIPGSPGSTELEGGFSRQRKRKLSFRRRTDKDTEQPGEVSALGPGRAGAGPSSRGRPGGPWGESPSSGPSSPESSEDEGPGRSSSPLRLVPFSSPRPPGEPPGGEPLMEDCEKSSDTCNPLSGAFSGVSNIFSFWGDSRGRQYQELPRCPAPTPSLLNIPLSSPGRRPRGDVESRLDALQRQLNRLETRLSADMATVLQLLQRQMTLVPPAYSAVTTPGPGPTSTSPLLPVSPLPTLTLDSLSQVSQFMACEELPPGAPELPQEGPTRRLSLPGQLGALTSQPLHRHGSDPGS
Method: The experiment starts upon reaching a resistance of 2-3.5 MOhm. A 5 µL cell suspension is added after generating a suction pulse to capture a cell, increasing resistance to 5 MOhm, and triggering the sealing step. […] A hERG protocol measures ion current every 10 s with voltage steps: holding at −80 mV, depolarizing to +40 mV, and repolarizing to −40 mV. Stable current is achieved in ~2 min. […]

[4] = 12 mg/kg every 2 h up to 12 h, total 72 mg/kg; cited from earlier work
[5] = Intravenous acute toxicity in mice; type: in vivo, Balb/c mice
Method: In total, 8–10 week old female Balb/c mice (n = 3) were administered tridecaptin M starting at 15 mg/kg, 25 mg/kg, 50 mg/kg, and 100 mg/kg. […] In this study, we administered 18 mg/kg of colistin to mice intravenously. […] Later, in the second set, intermediate concentrations of 20 mg/kg, 25 mg/kg, 30 mg/kg, 35 mg/kg, and 40 mg/kg doses were also administered to n = 4 mice. In these groups, blood was collected at 24 h post administration or immediately after visible movement stopped (40 mg/kg group), serum was separated and pooled together for each group n = 4, and biochemical serum tests were conducted.

mammalian cell lines = settings: cited from earlier work
[6] = 40 /kg i.v., at death within 2 h

## CC[C@H](C)CCCCC(=O)NCC(=O)N[C@H](CCN)C(=O)NCC(=O)N[C@H](CO)C(=O)N[C@H](Cc1c[nH]c2ccccc12)C(=O)N[C@@H](CO)C(=O)N[C@@H](CCN)C(=O)N[C@H](CCN)C(=O)N[C@H](C(=O)N[C@@H](CCC(=O)O)C(=O)N[C@H](C(=O)N[C@@H](C(=O)N[C@@H](CO)C(=O)O)[C@@H](C)CC)[C@@H](C)CC)[C@@H](C)CC [Tridecaptin M, tridecaptin M] (X1-G[dDab]G[dS][dW]S[Dab][dDab]IEI[d(aIle)]S-OH)
[1]
  ALP (serum): 77.33 ± 27.47 U/L
  Albumin (serum): 2.60 ± 0.47 g/dL
  BBilirubin (serum): 0.31 ± 0.06 mg/dL
  BUN (serum): 35.33 ± 11.43 mg%
  Calcium (serum): 7.76 ± 2.19 mg%
  Creatinine (serum): 0.41 ± 0.026 mg%
  Globulin (serum): 3.53 ± 0.83 g/dL
  Phosphorous (serum): 7.36 ± 1.27 mg%
  Proteins (serum): 6.13 ± 1.06 g/dL
  SGOT (serum): 657.33 ± 141.06 Units/L
  SGPT (serum): 103.67 ± 40.70 Units/L
  Uric acid (serum): 4.6 ± 1.89 mg%
  histopathological analysis of liver and kidneys: no signs of toxicity
CYP3A4
  IC50: > 30 µM
CYP3A4; human
  inhibition at 25 min, 0.01 µM: < 0%
  inhibition at 25 min, 0.03 µM: < 0%
  inhibition at 25 min, 0.1 µM: < 0%
  inhibition at 25 min, 0.3 µM: < 0%
  inhibition at 25 min, 1 µM: 3.77%
  inhibition at 25 min, 3 µM: 9%
  inhibition at 25 min, 10 µM: 28%
  inhibition at 25 min, 30 µM: 26.6%
CYP2C19
  IC50: > 30 µM
CYP2C19; human
  inhibition at 25 min, 0.01 µM: < 0%
  inhibition at 25 min, 0.03 µM: < 0%
  inhibition at 25 min, 0.1 µM: < 0%
  inhibition at 25 min, 0.3 µM: < 0%
  inhibition at 25 min, 1 µM: < 0%
  inhibition at 25 min, 3 µM: 0.13%
  inhibition at 25 min, 10 µM: 5.67%
  inhibition at 25 min, 30 µM: 11.7%
CYP2D6
  IC50: > 30 µM
CYP2D6; human
  inhibition at 25 min, 0.01 µM: < 0%
  inhibition at 25 min, 0.03 µM: < 0%
  inhibition at 25 min, 0.1 µM: < 0%
  inhibition at 25 min, 0.3 µM: < 0%
  inhibition at 25 min, 1 µM: < 0%
  inhibition at 25 min, 3 µM: 1.28%
  inhibition at 25 min, 10 µM: 10.9%
  inhibition at 25 min, 30 µM: 13.1%
In vitro; pH 7.4
  half-life: > 2 h
  remaining at 0.25 h: 82.4%
  remaining at 0.5 h: 83.8%
  remaining at 1 h: 88.1%
  remaining at 2 h: 74.7%
In vitro; pH 7.4, CL, mouse liver microsomes
  microsomal CLint: < 11 µL/min/mg
[2]
  hemolysis: non-hemolytic
[3]
  CL: <11.55 µL/min/mg
hERG channel; 0.1 µM
  Mean current: 4.41E-10 A
hERG channel; 0.3 µM
  Mean current: 4.66E-10 A
hERG channel; 1 µM
  Mean current: 4.64E-10 A
hERG channel; 3 µM
  Mean current: 4.58E-10 A
hERG channel; 10 µM
  Mean current: 4.34E-10 A
hERG channel; 30 µM
  Mean current: 4.68E-10 A
hERG channel; concentrations up to 30 µM (44.6 µg/mL)
  inhibition of the hERG channel: no significant inhibition
hERG channel; human, HEK293 cells expressing hERG, pH 7.4, 0.1 µM
  inhibition at 0.1 µM: -0.37%
hERG channel; human, HEK293 cells expressing hERG, pH 7.4, 0.3 µM
  inhibition at 0.3 µM: -5.86%
hERG channel; human, HEK293 cells expressing hERG, pH 7.4, 1 µM
  inhibition at 1 µM: -5.54%
hERG channel; human, HEK293 cells expressing hERG, pH 7.4, 3 µM
  inhibition at 3 µM: -4.07%
hERG channel; human, HEK293 cells expressing hERG, pH 7.4, 10 µM
  inhibition at 10 µM: 1.37%
hERG channel; human, HEK293 cells expressing hERG, pH 7.4, 30 µM
  inhibition at 30 µM: -6.44%
[4]
  tolerance in acute toxicity study: good tolerance
[5]; 20 mg/kg i.v., 24 h
  Amylase (pooled serum): 3800 U/L
  BUN (pooled serum): 96 mg%
  CPK (pooled serum): 448 U/L
  CPK_MB (pooled serum): 420 U/L
  Glucose (pooled serum): 344 mg/dL
  LDH (pooled serum): 2120 U/L
  Lipase (pooled serum): 1016 U/L
  SGOT (pooled serum): 244 Units/L
  SGPT (pooled serum): 68 Units/L
[5]; 25 mg/kg or less i.v.
  outcome of i.v. administration: no visible signs of toxicity or mortality
[5]; 30 mg/kg i.v.
  clinical signs: abnormal motor behavior, including dragging of limbs
  survival time post-administration: 6 to 10 h
[5]; 40 mg/kg i.v.
  time to mortality: ≤ 2 h
[5]; 50 mg/kg i.v.
  outcome of i.v. administration: resulted in mortality
[5]; 100 mg/kg i.v.
  outcome of i.v. administration: immediately lethal
[5]; 25 /kg i.v., 24 h
  Amylase (pooled serum): 5144 U/L
  BUN (pooled serum): 112 mg%
  CPK (pooled serum): 712 U/L
  CPK_MB (pooled serum): 952 U/L
  Glucose (pooled serum): 248 mg/dL
  LDH (pooled serum): 3896 U/L
  Lipase (pooled serum): 972 U/L
  SGOT (pooled serum): 872^b Units/L
  SGPT (pooled serum): 208 Units/L
[5]; [6]
  Amylase (pooled serum): 1560 U/L
  BUN (pooled serum): 24 mg%
  CPK (pooled serum): 24,472 U/L
  CPK_MB (pooled serum): 1408 U/L
  Glucose (pooled serum): 152 mg/dL
  LDH (pooled serum): 3280 U/L
  Lipase (pooled serum): 368 U/L
  SGOT (pooled serum): 784 Units/L
  SGPT (pooled serum): 88 Units/L
[5]; i.v. administration
  histopathology of liver, kidney, heart and brain vs control: no significant morphological alterations
[5]; intravenous administration
  dose at which acute toxicity is seen: ≥ 30 mg/kg
Mammalian cell lines
  cytotoxicity: non-cytotoxic
